Activity calls are given as the source filed them.
Columns and labels:
[1] = biological target: DNA dC->dU-editing enzyme APOBEC-3A (Homo sapiens, UniProt P31941); assay: Dose Response confirmation of small molecule APOBEC3A DNA Deaminase Inhibitors via a fluorescence-based single-stranded DNA deaminase assay. [Related pubchem assays (depositor defined):AID493011, AID493024]; assay type: functional
[2] = biological target: DNA dC->dU-editing enzyme APOBEC-3G (Homo sapiens, UniProt Q9HC16); assay type: functional;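 further: Dose-response counterscreen measuring inhibition of APOBEC3G DNA deaminase activity, run while confirming APOBEC3A inhibitors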
Aminopeptidase N = biological target: T1, Aminopeptidase N (Plasmodium falciparum FcB1/Columbia, UniProt O96935); assay: P. falciparum M1AAP inhibitors, biochemical, fluorogenic H-Leu-NHMec substrate, 1536-well (AID 1445); set-up: species or system Plasmodium falciparum 3D7, 3D7
T1 sequence (O96935 whole entry): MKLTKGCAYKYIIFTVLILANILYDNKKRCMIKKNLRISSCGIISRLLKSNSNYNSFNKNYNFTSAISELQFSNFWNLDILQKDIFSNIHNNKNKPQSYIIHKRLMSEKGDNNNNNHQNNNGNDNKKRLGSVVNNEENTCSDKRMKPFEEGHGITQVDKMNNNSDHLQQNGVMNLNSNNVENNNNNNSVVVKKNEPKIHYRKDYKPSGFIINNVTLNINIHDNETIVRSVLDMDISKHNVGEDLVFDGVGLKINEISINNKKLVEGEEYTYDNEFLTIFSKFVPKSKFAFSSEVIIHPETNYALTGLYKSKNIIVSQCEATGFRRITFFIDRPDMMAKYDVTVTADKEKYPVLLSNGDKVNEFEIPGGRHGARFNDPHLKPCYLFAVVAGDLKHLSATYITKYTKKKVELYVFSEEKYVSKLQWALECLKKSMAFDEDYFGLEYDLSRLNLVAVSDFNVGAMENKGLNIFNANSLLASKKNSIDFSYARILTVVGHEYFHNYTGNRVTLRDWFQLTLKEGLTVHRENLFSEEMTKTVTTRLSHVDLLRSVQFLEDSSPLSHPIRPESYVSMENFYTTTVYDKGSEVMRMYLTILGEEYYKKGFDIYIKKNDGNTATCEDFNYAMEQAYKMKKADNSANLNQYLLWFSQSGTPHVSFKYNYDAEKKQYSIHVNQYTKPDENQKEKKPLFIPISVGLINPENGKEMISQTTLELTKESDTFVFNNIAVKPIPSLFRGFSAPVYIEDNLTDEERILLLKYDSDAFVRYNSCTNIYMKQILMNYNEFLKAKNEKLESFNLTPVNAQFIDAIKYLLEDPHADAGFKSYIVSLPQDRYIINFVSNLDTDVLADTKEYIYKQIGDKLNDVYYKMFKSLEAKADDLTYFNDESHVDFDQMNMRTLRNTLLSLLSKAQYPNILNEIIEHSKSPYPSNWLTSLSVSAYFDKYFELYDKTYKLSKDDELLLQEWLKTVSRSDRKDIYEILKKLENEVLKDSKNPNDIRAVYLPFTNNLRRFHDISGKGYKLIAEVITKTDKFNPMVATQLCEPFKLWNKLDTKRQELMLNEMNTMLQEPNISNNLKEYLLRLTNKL

Leucine aminopeptidase = biological target: T2, Leucine aminopeptidase (Plasmodium falciparum 3D7, UniProt Q8IL11); assay: P. falciparum M17LAP inhibitors, primary screen, biochemical, fluorogenic H-Leu-NHMec substrate, 1536-well (AID 1619); assay type: functional
T2 sequence (Q8IL11 whole entry): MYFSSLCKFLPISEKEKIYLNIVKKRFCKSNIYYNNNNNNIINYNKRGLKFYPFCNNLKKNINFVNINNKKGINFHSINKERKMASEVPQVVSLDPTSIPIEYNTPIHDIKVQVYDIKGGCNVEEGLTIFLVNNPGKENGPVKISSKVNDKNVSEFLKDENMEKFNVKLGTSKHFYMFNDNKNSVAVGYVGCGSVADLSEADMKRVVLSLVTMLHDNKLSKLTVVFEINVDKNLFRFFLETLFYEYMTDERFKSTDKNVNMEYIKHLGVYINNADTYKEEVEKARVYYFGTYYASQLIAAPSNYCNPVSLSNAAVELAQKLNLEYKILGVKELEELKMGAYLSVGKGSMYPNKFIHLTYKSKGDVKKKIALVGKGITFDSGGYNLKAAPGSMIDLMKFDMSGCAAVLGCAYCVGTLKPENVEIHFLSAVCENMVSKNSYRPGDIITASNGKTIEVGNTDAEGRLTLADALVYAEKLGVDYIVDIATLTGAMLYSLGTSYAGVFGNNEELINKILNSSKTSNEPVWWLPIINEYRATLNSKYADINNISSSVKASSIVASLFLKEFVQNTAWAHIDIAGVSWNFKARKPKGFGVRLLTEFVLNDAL

[3] = biological target: T3, Short transient receptor potential channel 4 (Mus musculus, UniProt Q9QUQ5); assay: mouse TRPC4 channel inhibitors, dose response, cell-based, HEK293 TRPC4/mu-opioid, Fluo-4 calcium (AID 434942); assay type: functional;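 further: potency of inhibitors blocking the TRPC4 calcium response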
T3 sequence (Q9QUQ5 whole entry): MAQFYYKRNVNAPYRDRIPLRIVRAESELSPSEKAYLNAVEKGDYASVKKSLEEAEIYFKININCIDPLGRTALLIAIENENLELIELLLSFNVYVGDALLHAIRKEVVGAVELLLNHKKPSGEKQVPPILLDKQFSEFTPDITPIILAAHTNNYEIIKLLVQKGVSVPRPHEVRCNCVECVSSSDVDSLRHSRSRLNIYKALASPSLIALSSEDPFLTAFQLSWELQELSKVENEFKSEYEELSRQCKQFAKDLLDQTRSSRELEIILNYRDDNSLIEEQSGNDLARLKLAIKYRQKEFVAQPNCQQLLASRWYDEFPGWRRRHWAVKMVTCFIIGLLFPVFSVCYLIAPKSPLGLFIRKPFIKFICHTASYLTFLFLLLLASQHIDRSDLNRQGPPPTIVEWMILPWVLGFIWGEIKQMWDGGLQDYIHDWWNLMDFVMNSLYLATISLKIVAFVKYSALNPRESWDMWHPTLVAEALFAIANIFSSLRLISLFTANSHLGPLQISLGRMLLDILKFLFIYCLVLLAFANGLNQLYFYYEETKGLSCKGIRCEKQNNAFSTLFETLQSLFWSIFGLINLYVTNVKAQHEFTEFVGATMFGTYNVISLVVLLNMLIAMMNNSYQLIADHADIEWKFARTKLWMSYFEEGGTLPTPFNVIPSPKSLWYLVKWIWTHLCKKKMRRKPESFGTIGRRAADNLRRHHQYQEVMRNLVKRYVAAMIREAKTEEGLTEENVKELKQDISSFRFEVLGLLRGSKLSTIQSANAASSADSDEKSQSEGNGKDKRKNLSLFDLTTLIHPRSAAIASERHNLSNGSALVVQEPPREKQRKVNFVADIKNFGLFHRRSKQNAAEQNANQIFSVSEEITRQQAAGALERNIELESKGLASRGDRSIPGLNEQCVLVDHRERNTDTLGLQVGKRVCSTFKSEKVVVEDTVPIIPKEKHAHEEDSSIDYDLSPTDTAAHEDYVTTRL

[4] = biological target: T3, Short transient receptor potential channel 4; assay: mouse TRPC4 channel activators, dose response, cell-based, HEK293 TRPC4/mu-opioid, Fluo-4 calcium (AID 434937); assay type: functional
cells = assay type: functional
[5] = Vero E6 cell cytotoxicity, dose response, cytotoxicity control for non-replicating M. tuberculosis project, secondary assay (AID 492998); assay type: functional, VeroE6; details: Vero C1008
[6] = THP-1 cell cytotoxicity, dose response, cytotoxicity control for non-replicating M. tuberculosis project (AID 489025); assay type: functional
Cytochrome P450 3A4 = Cytochrome P450 3A4 (Homo sapiens, UniProt P08684);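 further: CYP3A4 tested as one member of a cytochrome P450 panel screen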
Sequence of Cytochrome P450 3A4 (P08684 whole entry): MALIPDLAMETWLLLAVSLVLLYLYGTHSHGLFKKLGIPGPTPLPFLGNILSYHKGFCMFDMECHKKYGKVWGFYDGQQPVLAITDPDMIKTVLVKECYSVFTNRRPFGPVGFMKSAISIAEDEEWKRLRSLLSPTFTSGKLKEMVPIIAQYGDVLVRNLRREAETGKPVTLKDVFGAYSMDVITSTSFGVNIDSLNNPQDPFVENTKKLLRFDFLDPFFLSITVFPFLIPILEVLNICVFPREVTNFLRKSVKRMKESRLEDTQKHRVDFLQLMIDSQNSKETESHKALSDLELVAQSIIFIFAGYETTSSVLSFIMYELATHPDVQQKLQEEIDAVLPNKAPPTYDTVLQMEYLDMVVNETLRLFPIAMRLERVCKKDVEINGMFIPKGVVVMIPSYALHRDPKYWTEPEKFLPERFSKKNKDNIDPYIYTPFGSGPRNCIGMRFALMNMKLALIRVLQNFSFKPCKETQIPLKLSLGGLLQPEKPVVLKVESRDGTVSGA

Sequence of DNA dC->dU-editing enzyme APOBEC-3A (P31941 whole entry): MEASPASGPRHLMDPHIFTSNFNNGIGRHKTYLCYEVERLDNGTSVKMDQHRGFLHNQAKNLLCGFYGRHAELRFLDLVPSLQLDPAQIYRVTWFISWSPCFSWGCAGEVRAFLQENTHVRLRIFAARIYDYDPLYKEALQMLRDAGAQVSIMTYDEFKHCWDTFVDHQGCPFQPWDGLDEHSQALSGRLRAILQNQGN
Sequence of DNA dC->dU-editing enzyme APOBEC-3G (Q9HC16 whole entry): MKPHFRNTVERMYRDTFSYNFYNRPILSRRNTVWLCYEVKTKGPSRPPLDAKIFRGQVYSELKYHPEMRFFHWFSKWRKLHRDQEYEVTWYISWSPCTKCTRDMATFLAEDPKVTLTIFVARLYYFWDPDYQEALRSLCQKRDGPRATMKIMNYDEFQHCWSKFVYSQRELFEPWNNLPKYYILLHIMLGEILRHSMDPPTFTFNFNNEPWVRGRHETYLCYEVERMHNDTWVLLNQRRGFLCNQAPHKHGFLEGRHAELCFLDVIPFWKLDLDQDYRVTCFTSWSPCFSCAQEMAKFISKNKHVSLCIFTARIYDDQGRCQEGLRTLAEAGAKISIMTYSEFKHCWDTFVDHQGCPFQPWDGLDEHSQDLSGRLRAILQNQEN

Compound: CN1CCN(S(=O)(=O)c2cccc(C(=O)N3CCN(c4ccccc4F)CC3)c2)CC1
- IC50 [1]: 10.1 µM (active)
- IC50 [2]: 19.2 µM (active)

Compound: CCOc1cc(/C=N/NC(=O)c2cccs2)cc([N+](=O)[O-])c1O
- IC50 (Aminopeptidase N): 103 µM (active)

Compound: O=C(NCc1cccs1)N[C@@H](Cc1ccccc1)C(=O)O
- IC50 (Leucine aminopeptidase): 57.6 µM (active)

Compound: CCn1nc(NC(=O)COC)c2cc3cc(C)ccc3nc21
- IC50 [1]: 5.02 µM (active)
- IC50 [2]: 6.5 µM (active)

Compound: CCCCC(c1nnnn1CC1CCCO1)N1CCN(Cc2ccccc2)CC1 (stereo unspecified)
- EC50 [3]: 2.37 µM (active)
- EC50 [4]: 4.73 µM (active)

Compound: COc1cc(CNCCc2ccccc2)cc(Br)c1OCC(=O)Nc1ccccc1C
- IC50 (cells): 21.2 µM (active)
- CC50 [5]: 19.4 µM (active)
- CC50 [6]: 23.1 µM (active)

Compound: NC(N)=Nc1nc2ccc([N+](=O)[O-])cc2[nH]1
- AC50 (Cytochrome P450 3A4): inconclusive

Compound: COc1cc(OC)c(NC(=O)c2ccc3c(SCC(=O)O)c4c(nc3c2)CCCC4)cc1Cl
- IC50 (Aminopeptidase N): 31.6 µM (active)

Compound: O=S(=O)(c1cccc(C(F)(F)F)c1)N1CCC(c2cc(-c3cccc4ccccc34)[nH]n2)CC1
- AC50 (Cytochrome P450 3A4): inconclusive

Compound: CCc1ccc(/C=C/c2c[nH]c3ccccc23)[n+](CC)c1
- IC50 [1]: 2.33 µM (active)
- IC50 [2]: 2.24 µM (active)

Source: ChEMBL document CHEMBL1201862, “PubChem BioAssay data set” (2004)
